Patent publication US12570656B2, “Purine compounds for treating disorders” (MARVEL BIOTECHNOLOGY, priority 2020, dated 2026)
Values joined by “and” are separate entries in the source; they are usually repeats but may differ in a detail not shown here. Equal values may be shown once. Read-outs that look alike come from different tables or passages of the source.

How the values were obtained:
[1] = Brain pharmacokinetics and brain/plasma ratio in male CD-1 mice (1 mg/kg i.v.); type: in vivo; conditions: for Brain concentration / concentration at 5 min / concentration at 0.25 h / concentration at 0.5 h / concentration at 1 h / concentration at 2 h / concentration at 4 h / concentration at 6 h / concentration at 8 h: 1 mg/kg bolus i.v.; for concentration at 5 min / concentration at 0.25 h / concentration at 0.5 h / concentration at 1 h / concentration at 2 h / concentration at 4 h / concentration at 6 h / concentration at 8 h: intravenous, 1 mg/kg
Protocol: (§1) Male CD-1 mice were given either bolus 1 mg/kg i.v. or 3 mg/kg p.o. of the indicated compounds and plasma or brain concentrations were measured.
(§2) Where: • C0 concentration extrapolated to time zero following an i.v. dose • tmax time at which maximum concentration is observed • Cmax maximum observed concentration • Apparent t1/2 apparent terminal half-life • AUC0-tlast area under the concentration vs time curve from time 0 to the time of the last measurable concentration • AUC0-inf area under the concentration vs time curve from time 0 to infinity • CL systemic clearance • MRT0-inf mean residence time from time zero to infinity • Vss steady-state volume of distribution • F oral bioavailability=(Dose^iv*AUC^po)/(Dose^po*AUC^iv)*100

[2] = Plasma pharmacokinetics in male CD-1 mice (1 mg/kg i.v. or 3 mg/kg p.o.); conditions: CD-1, mouse, in vivo
Protocol: as §1, §2

ADORA2A = ADORA2A (Homo sapiens, UniProt P29274); assay: GPCR screening, calcium flux (calcium mobilization), antagonist format; type: cell-based
Protocol: To ascertain whether the compounds are suitable A2aR antagonists, the compounds of formulae I, II, III, and IV were subjected to GPCR screening using A2aR as the target. The screening was done using the GPCR Screening and Profiling Services by Eurofins DiscoverX Corporation.
The compounds of formulae I, II, III, and IV were screened for GPCR activity using A2aR as the target.
Cell lines were expanded from freezer stocks according to standard procedures. Cells were seeded in a total volume of 20 μL into black-walled, clear-bottom, Poly-D-lysine coated 384-well microplates and incubated at 37° C. for the appropriate time prior to testing.
Assays were performed in 1× Dye Loading Buffer consisting of 1× Dye, 1× Additive A and 2.5 mM Probenecid in HBSS/20 mM Hepes. Probenicid was prepared fresh. Cells were loaded with dye prior to testing. Media was aspirated from cells and replaced with 20 μL Dye Loading Buffer. Cells were incubated for 30-60 minutes at 37° C.
For antagonist determination, cells were pre-incubated with sample followed by agonist challenge at the EC80 concentration. Intermediate dilution of sample stocks was performed to generate 3× sample in assay buffer. After dye loading, cells were removed from the incubator and 10 μL 3× sample was added. Cells were incubated for 30 minutes at room temperature in the dark to equilibrate plate temperature. Vehicle concentration was 1%. Compound antagonist activity was measured on a FLIPR Tetra (MDS). Calcium mobilization was monitored for 2 minutes and 10 μL EC80 agonist in HBSS/20 mM Hepes was added to the cells 5 seconds into the assay.
For antagonist and negative allosteric modulation mode assays, percentage inhibition is calculated using the following formula: % Inhibition=100%×(1−(mean RFU of test sample−mean RFU of vehicle control)/(mean RFU of EC80 control−mean RFU of vehicle control)).
When the calcium was released, the fluorescence of the dye was increased and the increase was measured in real-time.
FIGS. 1 to 6 show percent reacted (Y) versus concentration in μM (X). Compounds were tested in antagonist mode with the requested GPCR Biosensor Assay. For the antagonist assay, data was normalized to the maximal and minimal response observed in the presence of EC80 ligand and vehicle.

[3] = male, CD-1, mouse, iv, brain, i.v. 1 mg/kg

Chain of ADORA2A (P29274 whole entry): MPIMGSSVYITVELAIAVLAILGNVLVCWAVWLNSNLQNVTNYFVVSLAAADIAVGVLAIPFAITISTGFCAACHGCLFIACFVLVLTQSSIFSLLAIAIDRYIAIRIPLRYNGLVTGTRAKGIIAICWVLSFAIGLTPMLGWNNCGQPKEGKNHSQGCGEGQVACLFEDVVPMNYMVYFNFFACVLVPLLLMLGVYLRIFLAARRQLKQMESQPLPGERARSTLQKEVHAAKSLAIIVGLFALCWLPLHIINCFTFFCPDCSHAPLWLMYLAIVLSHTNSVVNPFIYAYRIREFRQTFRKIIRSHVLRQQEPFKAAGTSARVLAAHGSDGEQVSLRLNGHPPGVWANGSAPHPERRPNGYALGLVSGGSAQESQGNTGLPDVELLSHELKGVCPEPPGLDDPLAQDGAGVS

For `CCn1c(=S)c2c(nc(/C=C/c3ccc(OC)c(OC)c3)n2C)n(CC)c1=O` [Formula III, 8-[(E)-2-(3,4-dimethoxyphenyl)vinyl]-1,3-diethyl-7-methyl-6-thioxo-purin-2-one], the Brain concentration ([1]; 5 min, individual animals 1-3) was 383 ng/g and 368 ng/g, the Brain concentration ([1]; 0.25 h, individual animals 1-3) was 454 ng/g and 394 ng/g and the Brain concentration ([1]; 0.5 h, individual animals 1-3) was 457 ng/g and 304 ng/g. The Brain concentration ([1]; 1 h, individual animals 1-3) was 348 ng/g and 354 ng/g, the Brain concentration ([1]; 2 h, individual animals 1-3) was 239 ng/g and 224 ng/g and the Brain concentration ([1]; 4 h, individual animals 1-3) was 165 ng/g and 113 ng/g. The Brain concentration ([1]; 6 h, individual animals 1-3) was 94.1 ng/g and 81.5 ng/g, the Brain concentration ([1]; 8 h, individual animals 1-3) was 63.9 ng/g and 38.8 ng/g and the AUC0-tlast ([1]; brain, i.v. 1 mg/kg) was 1315 ng·h/g. For the same compound, the AUC(0-inf) ([1]; brain, i.v. 1 mg/kg) was 1517 ng·h/g, the concentration at 5 min ([1]; male, CD-1, mouse, brain, 5 min, individual animals 1-3, read-out: Brain concentration) was 490 ng/g and the concentration at 5 min ([1]; male, CD-1, mouse, brain, 5 min, read-out: Brain concentration, Mean) was 414 ng/g. It also gave a concentration at 0.25 h ([1]; male, CD-1, mouse, brain, 0.25 h, individual animals 1-3, read-out: Brain concentration) of 379 ng/g, a concentration at 0.25 h ([1]; male, CD-1, mouse, brain, 0.25 h, read-out: Brain concentration, Mean) of 409 ng/g and a concentration at 0.5 h ([1]; male, CD-1, mouse, brain, 0.5 h, individual animals 1-3, read-out: Brain concentration) of 379 ng/g. It also gave a concentration at 0.5 h ([1]; male, CD-1, mouse, brain, 0.5 h, read-out: Brain concentration, Mean) of 380 ng/g, a concentration at 1 h ([1]; male, CD-1, mouse, brain, 1 h, individual animals 1-3, read-out: Brain concentration) of 262 ng/g and a concentration at 1 h ([1]; male, CD-1, mouse, brain, 1 h, read-out: Brain concentration, Mean) of 321 ng/g. It also gave a concentration at 2 h ([1]; male, CD-1, mouse, brain, 2 h, individual animals 1-3, read-out: Brain concentration) of 212 ng/g, a concentration at 2 h ([1]; male, CD-1, mouse, brain, 2 h, read-out: Brain concentration, Mean) of 225 ng/g and a concentration at 4 h ([1]; male, CD-1, mouse, brain, 4 h, individual animals 1-3, read-out: Brain concentration) of 96.9 ng/g. It also gave a concentration at 4 h ([1]; male, CD-1, mouse, brain, 4 h, read-out: Brain concentration, Mean) of 125 ng/g, a concentration at 6 h ([1]; male, CD-1, mouse, brain, 6 h, individual animals 1-3, read-out: Brain concentration) of 90.1 ng/g and a concentration at 6 h ([1]; male, CD-1, mouse, brain, 6 h, read-out: Brain concentration, Mean) of 88.6 ng/g. It also gave a concentration at 8 h ([1]; male, CD-1, mouse, brain, 8 h, individual animals 1-3, read-out: Brain concentration) of 45.5 ng/g, a concentration at 8 h ([1]; male, CD-1, mouse, brain, 8 h, read-out: Brain concentration, Mean) of 49.4 ng/g and a Cmax [1, 3] of 414 ng/g. It also gave a Tmax [1, 3] of 5 min, a half-life ([1]; male, CD-1, mouse, iv, brain, i.v. 1 mg/kg, read-out: Apparent t1/2 (converted)) of 2.83 h and an MRT inf ([1]; male, CD-1, mouse, iv, brain, i.v. 1 mg/kg, read-out: MRT0-inf) of 3.94 h. The bioavailability [2] was 21.5%, the AUC(0-inf) ([2]; iv, 1 mg/kg) was 1580 ng·h/mL and the AUC(0-t) ([2]; iv, 1 mg/kg) was 1280 ng·h/mL. It also gave a Cmax ([2]; iv, 1 mg/kg) of 360 ng/mL, an MRT inf ([2]; iv, 1 mg/kg) of 4.73 h and a Tmax ([2]; iv, 1 mg/kg) of 0.25 h. The Vd ([2]; iv, 1 mg/kg) was 3 L/kg, the clearance ([2]; iv, 1 mg/kg) was 10.6 mL/min/kg and the half-life ([2]; iv, 1 mg/kg) was 3.39 h. For the same compound, the AUC(0-inf) ([2]; po, 3 mg/kg) was 1020 ng·h/mL, the AUC(0-t) ([2]; po, 3 mg/kg) was 988 ng·h/mL and the Cmax ([2]; po, 3 mg/kg) was 124 ng/mL. For the same compound, the MRT inf ([2]; po, 3 mg/kg) was 7.55 h, the Tmax ([2]; po, 3 mg/kg) was 1 h and the half-life ([2]; po, 3 mg/kg) was 4.44 h. The “Curve Bottom” value (ADORA2A; Antagonist format) was 5.0984, the “Curve Top” value (ADORA2A; Antagonist format) was 98 and the Hill (ADORA2A; Antagonist format) was 1.3853. For the same compound, the Emax (ADORA2A; read-out: Max Response) was 97.1%.
